Non-standard residues stand in square brackets, D forms with d. Residues, ends and D or L forms follow the SMILES beside them. ξ: configuration not given here. *: point of attachment. Dansyl = CN(C)c1cccc2c(S(=O)(=O)*)cccc12; Pyrrolidide = C1CCN(*)C1; ξP = O=C(O)C1CCCN1; Sar = CNCC(=O)O

System in one data set: not listed separately
Nature of the data set: Acute toxicity (LD50) by oral administration in mice. The conditions noted are these: mouse, in vivo, per kilogram of body weight.
Turning to `CN(C)c1cccc2c(S(=O)(=O)N[C@@H](CCCNC(=N)N)C(=O)N3Cc4ccccc4C3)cccc12` [2-(N^2-dansyl-L-arginyl)isoindoline], the LD50 (usually the dose expected to kill half of the subjects tested) was 1360 mg/kg.

The next data set concerns the target T1, thrombin (Bos taurus, UniProt P00735).
T1 construct: mature alpha-thrombin (light plus heavy chain) cut from prothrombin
Nature of the data set: Fibrinogen coagulation time (thrombin-induced clotting of fibrinogen). The conditions noted are these: bovine fibrinogen, borate saline buffer pH 7.4, thrombin 0.1 ml of 5 units/ml, 25°C; control coagulation time 50-55 seconds; read-out: Concentration required to prolong the coagulation time by a factor of 2. The format is biochemical. Here is the method:
The antithrombotic activities of the N^2 -dansyl-L-arginine derivatives of this invention were compared with those of a known antithrombotic agent, (N^2 -(p-tolylsulfonyl)-L-arginine methyl ester). by determining the fibrinogen coagulation time. The measurement of the fibrinogen coagulation time was conducted as follows:
Immediately after mixing, the reaction mixture was transferred from the ice bath to a bath thermostated at 25°C. Coagulation times were taken as the period between the time of transference to the 25°C bath and the time of the first appearance of fibrin threads.
The term "concentration required to prolong the coagulation time by a factor of two" is the concentration of an active ingredient required to prolong the normal coagulation time 50-55 seconds to 100-110 seconds.
On to `COCCNC(=O)[C@H](CCCNC(=N)N)NS(=O)(=O)c1cccc2c(N(C)C)cccc12` [Sample 28, N^2-dansyl-N-(2-methoxyethyl)-L-argininamide dihydrate], for which the IC (2-fold clotting time) came out at 4 µM.

Regarding `COCCCNC(=O)[C@H](CCCNC(=N)N)NS(=O)(=O)c1cccc2c(N(C)C)cccc12` [Sample 29], the IC (2-fold clotting time) was 65 µM. For the molecule `CCOCCNC(=O)[C@H](CCCNC(=N)N)NS(=O)(=O)c1cccc2c(N(C)C)cccc12` [Sample 30, N^2-dansyl-N-(2-ethoxyethyl)-L-argininamide], the IC (2-fold clotting time) was 5 µM. As to `CCOC(=O)CNC(=O)[C@H](CCCNC(=N)N)NS(=O)(=O)c1cccc2c(N(C)C)cccc12` [Sample 31, N^2-dansyl-N-(2-ethoxycarbonylmethyl)-L-argininamide diacetate] (Dansyl-Arg-Gly-OEt), the IC (2-fold clotting time) worked out at 160 µM. Still for that read-out and setting: to `COC(=O)CCNC(=O)[C@H](CCCNC(=N)N)NS(=O)(=O)c1cccc2c(N(C)C)cccc12` [Sample 32, N^2-dansyl-N-(2-methoxycarbonylethyl)-L-argininamide] belongs 22 µM.

As for `CCOC(=O)CCNC(=O)[C@H](CCCNC(=N)N)NS(=O)(=O)c1cccc2c(N(C)C)cccc12` [Sample 33, N^2-dansyl-N-(2-ethoxycarbonylethyl)-L-argininamide diacetate], the IC (2-fold clotting time) turned out to be 5 µM.

Consider `CCOC(=O)CCCNC(=O)[C@H](CCCNC(=N)N)NS(=O)(=O)c1cccc2c(N(C)C)cccc12` [Sample 34], for which the IC (2-fold clotting time) is 500 µM. Consider `C=CCNC(=O)[C@H](CCCNC(=N)N)NS(=O)(=O)c1cccc2c(N(C)C)cccc12` [Sample 35, N^2 -dansyl-N-allyl-L-argininamide], for which the IC (2-fold clotting time) was found to be 10 µM. On the same count and under the same terms, the result for `CN(C)c1cccc2c(S(=O)(=O)N[C@@H](CCCNC(=N)N)C(=O)NC3CC3)cccc12` [Sample 36] reads 200 µM; that for `CN(C)c1cccc2c(S(=O)(=O)N[C@@H](CCCNC(=N)N)C(=O)NCC3CCCCC3)cccc12` [Sample 37, N^2 -dansyl-N-cyclohexylmethyl-L-argininamide], 40 µM.

As to `CN(C)c1cccc2c(S(=O)(=O)N[C@@H](CCCNC(=N)N)C(=O)Nc3ccccc3)cccc12` [Sample 38], the IC (2-fold clotting time) worked out at 100 µM. On the same count and under the same terms, the result for `CN(C)c1cccc2c(S(=O)(=O)N[C@@H](CCCNC(=N)N)C(=O)NCc3ccccc3)cccc12` [Sample 39] reads 50 µM. In the case of `CN(C)c1cccc2c(S(=O)(=O)N[C@@H](CCCNC(=N)N)C(=O)NCCc3ccccc3)cccc12` [Sample 40, N^2 -dansyl-N-(β-phenylethyl)-L-argininamide dihydrate], the IC (2-fold clotting time) turned out to be 150 µM. For `CN(C)c1cccc2c(S(=O)(=O)N[C@@H](CCCNC(=N)N)C(=O)NCCCc3ccccc3)cccc12` [Sample 41], the IC (2-fold clotting time) worked out at 27 µM.

Regarding `CN(C)c1cccc2c(S(=O)(=O)N[C@@H](CCCNC(=N)N)C(=O)NCCC(=O)Nc3ccccc3)cccc12` [Sample 42, N^2-dansyl-N-(2-phenylcarbamoylethyl)-L-argininamide diacetate], the IC (2-fold clotting time) was greater than 500 µM. Consider `CN(C)c1cccc2c(S(=O)(=O)N[C@@H](CCCNC(=N)N)C(=O)NCC(=O)N3CCCC3)cccc12` [Sample 43] (Dansyl-Arg-Gly-Pyrrolidide), for which the IC (2-fold clotting time) is 370 µM. On the same count and under the same terms, to `CCN(CC)C(=O)[C@H](CCCNC(=N)N)NS(=O)(=O)c1cccc2c(N(C)C)cccc12` [Sample 45, N^2 -dansyl-N,N-diethyl-L-argininamide diacetate] belongs 55 µM; to `CCCCN(CCCC)C(=O)[C@H](CCCNC(=N)N)NS(=O)(=O)c1cccc2c(N(C)C)cccc12` [Sample 46], 39 µM. Consider `CCCCN(C)C(=O)[C@H](CCCNC(=N)N)NS(=O)(=O)c1cccc2c(N(C)C)cccc12` [Sample 47, N^2 -dansyl-N-(n-butyl)-N-methyl-L-argininamide diacetate], for which the IC (2-fold clotting time) turned out to be 2 µM. Still for that read-out and setting: to `CCCCN(CC)C(=O)[C@H](CCCNC(=N)N)NS(=O)(=O)c1cccc2c(N(C)C)cccc12` [Sample 48] belongs 50 µM; to `CCOC(=O)CN(C)C(=O)[C@H](CCCNC(=N)N)NS(=O)(=O)c1cccc2c(N(C)C)cccc12` [Sample 49] (Dansyl-Arg-[Sar]-OEt), 59 µM. Same read-out and setting: the result for `COC(=O)CCN(C)C(=O)[C@H](CCCNC(=N)N)NS(=O)(=O)c1cccc2c(N(C)C)cccc12` [Sample 50, N^2-dansyl-N-methyl-N-(2-methoxycarbonylethyl)-L-argininamide] reads 2.5 µM.

With `CCOC(=O)CCN(C)C(=O)[C@H](CCCNC(=N)N)NS(=O)(=O)c1cccc2c(N(C)C)cccc12` [Sample 51], the IC (2-fold clotting time) was determined as 15 µM.

As for `CN(Cc1ccccc1)C(=O)[C@H](CCCNC(=N)N)NS(=O)(=O)c1cccc2c(N(C)C)cccc12` [Sample 52, N^2 -dansyl-N-methyl-N-benzyl-L-argininamide], the IC (2-fold clotting time) was 7 µM. With `CN(C)c1cccc2c(S(=O)(=O)N[C@@H](CCCNC(=N)N)C(=O)N3CCCC3)cccc12` [Sample 53, 1-(N^2-dansyl-L-arginyl)pyrrolidine diacetate], the IC (2-fold clotting time) came out at 3.3 µM.

Turning to `CCOC(=O)C1CCCN1C(=O)[C@H](CCCNC(=N)N)NS(=O)(=O)c1cccc2c(N(C)C)cccc12` (some centres unmarked) [Sample 54] (Dansyl-Arg-[ξP]-OEt), the IC (2-fold clotting time) is 780 µM. For `CN(C)c1cccc2c(S(=O)(=O)N[C@@H](CCCNC(=N)N)C(=O)N3CCCCC3)cccc12` [Sample 55, 1-(N^2-dansyl-L-arginyl)piperidine diacetate], the IC (2-fold clotting time) amounted to 0.9 µM. Same read-out and setting: to `CC1CCCCN1C(=O)[C@H](CCCNC(=N)N)NS(=O)(=O)c1cccc2c(N(C)C)cccc12` (stereo partly drawn) [Sample 56, 2-methyl-1-(N^2-dansyl-L-arginyl)piperidine] belongs 1.3 µM; to `CC1CCCN(C(=O)[C@H](CCCNC(=N)N)NS(=O)(=O)c2cccc3c(N(C)C)cccc23)C1` (stereo partly drawn) [Sample 57, 3-methyl-1-(N^2-dansyl-L-arginyl)piperidine], 6.5 µM. The same measure, in the same setting: the result for `CC1CCN(C(=O)[C@H](CCCNC(=N)N)NS(=O)(=O)c2cccc3c(N(C)C)cccc23)CC1` [Sample 58, 4-methyl-1-(N^2-dansyl-L-arginyl)piperidine diacetate] reads 0.3 µM; that for `CCC1CCN(C(=O)[C@H](CCCNC(=N)N)NS(=O)(=O)c2cccc3c(N(C)C)cccc23)CC1` [Sample 59, 4-ethyl-1-(N^2-dansyl-L-arginyl) piperidine], 0.1 µM; that for `CCCC1CCN(C(=O)[C@H](CCCNC(=N)N)NS(=O)(=O)c2cccc3c(N(C)C)cccc23)CC1` [Sample 60, 4-(n-propyl)-1-(N^2-dansyl-L-arginyl)piperidine], 1 µM. The same measure, in the same setting: the result for `CC(C)C1CCN(C(=O)[C@H](CCCNC(=N)N)NS(=O)(=O)c2cccc3c(N(C)C)cccc23)CC1` [Sample 61, 4-(isopropyl)-1-(N^2-dansyl-L-arginyl)piperidine] reads 1 µM; that for `COC(=O)C1CCN(C(=O)[C@H](CCCNC(=N)N)NS(=O)(=O)c2cccc3c(N(C)C)cccc23)CC1` [Sample 62, 4-methoxycarbonyl-1-(N^2-dansyl-L-arginyl)piperidine], 2.8 µM; that for `CN(C)c1cccc2c(S(=O)(=O)N[C@@H](CCCNC(=N)N)C(=O)N3CCC(C(N)=O)CC3)cccc12` [Sample 63], 100 µM. Regarding `CN(C)c1cccc2c(S(=O)(=O)N[C@@H](CCCNC(=N)N)C(=O)N3CCCCCC3)cccc12` [Sample 64, N^2 -dansyl-N,N-hexamethylene-L-argininamide], the IC (2-fold clotting time) stood at 0.9 µM. For the molecule `CN(C)c1cccc2c(S(=O)(=O)N[C@@H](CCCNC(=N)N)C(=O)N3CCCCCCC3)cccc12` [Sample 65, N^2 -dansyl-N,N-heptamethylene-L-argininamide], the IC (2-fold clotting time) was 1 µM. On the same count and under the same terms, to `CN(C)c1cccc2c(S(=O)(=O)N[C@@H](CCCNC(=N)N)C(=O)N3CCCCCCCC3)cccc12` [Sample 66, N^2 -dansyl-N,N-octamethylene-L-argininamide] belongs 2 µM; to `CN(C)c1cccc2c(S(=O)(=O)N[C@@H](CCCNC(=N)N)C(=O)N3CCOCC3)cccc12` [Sample 67, 4-(N^2-dansyl-L-arginyl)morpholine], 1.5 µM. With `CC1CN(C(=O)[C@H](CCCNC(=N)N)NS(=O)(=O)c2cccc3c(N(C)C)cccc23)CC(C)O1` (some centres unmarked) [Sample 68], the IC (2-fold clotting time) was found to be 20 µM. On the same count and under the same terms, the result for `CN(C)c1cccc2c(S(=O)(=O)N[C@@H](CCCNC(=N)N)C(=O)N3Cc4ccccc4C3)cccc12` [Sample 70, 2-(N^2-dansyl-L-arginyl)isoindoline] reads 0.67 µM; that for `CN1CCN(C(=O)[C@H](CCCNC(=N)N)NS(=O)(=O)c2cccc3c(N(C)C)cccc23)CC1` [Sample 71, 4-methyl-1-(N^2-dansyl-L-arginyl)piperazine], 2 µM; that for `CN(C)c1cccc2c(S(=O)(=O)N[C@@H](CCCNC(=N)N)C(=O)N3CCCc4ccccc43)cccc12` [Sample 72, N^2-dansyl-N-(1,2,3,4-tetrahydro-1-quinolyl)argininamide], 6.5 µM.

The values above are taken from patent US3978045A, “N^2 -dansyl-L-arginine derivatives, and the pharmaceutically acceptable acid addition salts thereof” (priority 1973, dated 1976).
